According to ChEMBL document CHEMBL1201862, “PubChem BioAssay data set” (2004):
One block for each molecule: values may come before it. The source made the active and inactive calls.

Assays:
[1] = inhibitors of intracellular T. cruzi replication, confirmation, NIH3T3 host cells, beta-gal luminescence (AID 2044); format: functional, cell-based;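 note: intracellular parasites grown in NIH/3T3 mouse fibroblasts as host cells; luminescent beta-galactosidase reporter signal from transgenic T. cruzi replicating inside host cells; inhibitors lower the luminescence signal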
[2] = inhibitors of Bluetongue virus cytopathic effect, confirmation, arbovirus, BSR cells (AID 1250); format: functional;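 note: protection from viral cytopathic effect measured as cell viability by ATP luminescence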
[3] = cytotoxicity toward NIH3T3 fibroblasts, dose response, counter-screen, cell-based, ATP luminescence, mouse fibroblasts (AID 2010); format: functional;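 note: cells exposed to compound for about 90 hours before reading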
[4] = biological target: Eukaryotic translation initiation factor 4H (Homo sapiens, UniProt Q15056); assay: eIF4H inhibition in translation initiation, SAR follow-up (AID 435011); format: functional
[5] = biological target: Polyadenylate-binding protein 1 (Homo sapiens, UniProt P11940); assay: PABP inhibition in translation initiation, SAR follow-up (AID 435018); format: functional
Leucine aminopeptidase = biological target: T1, Leucine aminopeptidase (Plasmodium falciparum 3D7, UniProt Q8IL11); assay: P. falciparum M17LAP inhibitors, primary screen, biochemical, fluorogenic H-Leu-NHMec substrate, 1536-well (AID 1619); format: functional
T1 sequence (Q8IL11 whole entry): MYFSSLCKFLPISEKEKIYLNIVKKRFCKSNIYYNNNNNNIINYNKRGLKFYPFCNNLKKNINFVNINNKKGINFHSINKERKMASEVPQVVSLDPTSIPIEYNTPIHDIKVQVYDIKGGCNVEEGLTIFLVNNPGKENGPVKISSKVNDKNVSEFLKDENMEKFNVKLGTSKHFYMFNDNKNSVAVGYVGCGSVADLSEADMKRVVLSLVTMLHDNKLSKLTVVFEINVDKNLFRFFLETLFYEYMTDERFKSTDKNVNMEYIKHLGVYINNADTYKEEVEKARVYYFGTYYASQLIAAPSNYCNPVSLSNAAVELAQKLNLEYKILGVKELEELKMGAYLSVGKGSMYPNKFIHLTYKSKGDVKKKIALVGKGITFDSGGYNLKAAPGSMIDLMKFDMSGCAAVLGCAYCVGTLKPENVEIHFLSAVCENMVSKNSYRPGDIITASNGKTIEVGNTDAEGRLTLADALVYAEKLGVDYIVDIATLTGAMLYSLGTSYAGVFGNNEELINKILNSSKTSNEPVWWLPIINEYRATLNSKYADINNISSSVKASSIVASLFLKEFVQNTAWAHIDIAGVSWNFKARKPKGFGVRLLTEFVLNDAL

Procathepsin L = Procathepsin L (Homo sapiens, UniProt P07711); assay: cathepsin L inhibitors, dose response, counter-screen for M1/M17 aminopeptidase inhibitor project, biochemical, QFRET, 1536-well (AID 2214)
Aspartyl aminopeptidase = biological target: T2, Aspartyl aminopeptidase (Plasmodium falciparum 3D7, UniProt Q8I2J3); assay: Counterscreen for inhibitors of M1 and M17 aminopeptidases: QFRET-based biochemical high throughput dose response assay for inhibitors of the Plasmodium falciparum M18 Aspartyl Aminopeptidase (PFM18AAP). [Related PubChem assays: 1619 (Screening assay (M17LAP inhibitors).), 1445 (Screening assay (M1AAP inhibitors).)]
T2 sequence (Q8I2J3 whole entry): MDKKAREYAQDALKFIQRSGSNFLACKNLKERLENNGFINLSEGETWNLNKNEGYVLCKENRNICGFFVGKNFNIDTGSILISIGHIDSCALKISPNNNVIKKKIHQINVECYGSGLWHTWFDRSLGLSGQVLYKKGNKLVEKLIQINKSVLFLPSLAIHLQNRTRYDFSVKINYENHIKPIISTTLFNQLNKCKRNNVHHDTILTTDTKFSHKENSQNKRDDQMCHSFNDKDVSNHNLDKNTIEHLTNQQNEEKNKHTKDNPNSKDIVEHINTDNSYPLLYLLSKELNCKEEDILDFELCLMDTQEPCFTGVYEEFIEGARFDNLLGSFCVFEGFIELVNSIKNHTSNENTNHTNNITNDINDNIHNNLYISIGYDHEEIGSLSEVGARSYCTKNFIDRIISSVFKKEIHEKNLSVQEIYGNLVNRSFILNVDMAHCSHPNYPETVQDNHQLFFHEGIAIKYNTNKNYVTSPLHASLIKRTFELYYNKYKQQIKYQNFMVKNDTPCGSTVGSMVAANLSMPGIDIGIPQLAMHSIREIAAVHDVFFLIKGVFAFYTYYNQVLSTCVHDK

Chain of Polyadenylate-binding protein 1 (P11940 whole entry): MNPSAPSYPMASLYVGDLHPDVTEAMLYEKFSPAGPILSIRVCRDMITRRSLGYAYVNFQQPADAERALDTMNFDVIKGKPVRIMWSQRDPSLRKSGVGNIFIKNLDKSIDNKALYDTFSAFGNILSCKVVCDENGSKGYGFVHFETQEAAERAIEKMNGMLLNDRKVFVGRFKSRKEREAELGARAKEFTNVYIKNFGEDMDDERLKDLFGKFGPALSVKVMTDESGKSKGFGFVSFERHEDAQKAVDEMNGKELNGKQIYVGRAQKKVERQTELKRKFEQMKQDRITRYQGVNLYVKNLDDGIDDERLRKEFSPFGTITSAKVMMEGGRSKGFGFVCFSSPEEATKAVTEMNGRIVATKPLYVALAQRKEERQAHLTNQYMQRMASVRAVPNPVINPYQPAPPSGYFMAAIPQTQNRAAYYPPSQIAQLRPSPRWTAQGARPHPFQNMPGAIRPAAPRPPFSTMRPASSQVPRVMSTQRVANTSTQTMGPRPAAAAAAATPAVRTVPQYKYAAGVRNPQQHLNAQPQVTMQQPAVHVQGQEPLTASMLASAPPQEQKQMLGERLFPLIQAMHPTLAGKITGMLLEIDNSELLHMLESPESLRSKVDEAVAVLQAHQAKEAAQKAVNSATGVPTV
Chain of Procathepsin L (P07711 whole entry): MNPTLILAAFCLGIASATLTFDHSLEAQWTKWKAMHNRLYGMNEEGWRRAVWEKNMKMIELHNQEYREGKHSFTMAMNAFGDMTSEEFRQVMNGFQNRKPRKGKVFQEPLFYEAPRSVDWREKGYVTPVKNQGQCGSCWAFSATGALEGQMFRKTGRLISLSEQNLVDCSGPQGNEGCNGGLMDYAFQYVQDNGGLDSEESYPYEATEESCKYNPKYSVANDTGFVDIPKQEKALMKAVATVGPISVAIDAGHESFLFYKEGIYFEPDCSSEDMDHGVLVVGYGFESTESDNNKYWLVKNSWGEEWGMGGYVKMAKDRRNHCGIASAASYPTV

Compound: S=C(NCc1ccccc1)N1CCn2cccc2C1c1cccnc1 (centres undefined)
EC50 [1]: 2.95 µM (active)
IC50 [2]: 22.1 µM (active)
EC50 [3]: > 60 µM (inconclusive)

Compound: O=C(COc1ccc(C=NNC(=O)c2ccccc2O)cc1)Nc1ccccc1
IC50 [4]: > 100 µM (inactive)
IC50 [5]: > 100 µM (inactive)

IC50 (Leucine aminopeptidase): 1.39 µM (active)
IC50 (Procathepsin L): > 59.6 µM (not active)
IC50 (Aspartyl aminopeptidase): > 73.5 µM (not active)
Compound: COC(=O)c1c(-c2ccco2)csc1NC(=O)C1CC=CCC1C(=O)O (centres undefined)

IC50 [2]: 34.4 µM (active)
Compound: COC(=O)/C=C/c1sc2nc(C)cc(C)c2c1/N=C/N(C)C
